Source: ChEMBL document CHEMBL5356964, “Design, synthesis and anti-rheumatoid arthritis activity of target TLR4 inhibitors” (Bioorg Med Chem, 2024)
Calls of active or inactive are those of the source. The rule behind the calls is not given here.

Experiments:
[1] = Antiproliferative activity against rat Synovial cell assessed as inhibition of cell growth incubated for 48 hrs by CCK-8 assay; type: functional, cell-based
RAW264.7 [2] = assay: Antiproliferative activity against LPS-induced- mouse RAW264.7 cells assessed as inhibition of cell growth incubated for 24 hrs by CCK-8 assay; type: functional, cell-based; settings: RAW264.7, 24 h
RAW264.7 [3] = assay: Antiarthritic activity against LPS-induced mouse RAW264.7 cells assessed as reduction in TNF-alpha level at 1 uM incubated for 24 hrs (Rvb 653.3 +/- 70.1 pg/L); type: functional
RAW264.7 [4] = assay: Antiarthritic activity against LPS-induced mouse RAW264.7 cells assessed as reduction in IL-1beta level at 1 uM incubated for 24 hrs (Rvb 665.1 +/- 82.1 pg/L); type: functional
Toll-like receptor 4 [5] = biological target: T1, Toll-like receptor 4 (Homo sapiens, UniProt O00206); assay: Inhibition of TLR4 (unknown origin) using TMB as substrate incubated for 90 mins
RAW264.7 [6] = assay: Antiarthritic activity against LPS-induced mouse RAW264.7 cells assessed as reduction in IL-6 level at 1 uM incubated for 24 hrs (Rvb 231.1 +/- 24.2 pg/L); type: functional
RAW264.7 [7] = assay: Antiarthritic activity against LPS-induced mouse RAW264.7 cells assessed as downregulation of STAT3 expression at 1 uM preincubated with compound for 24 hrs followed by LPS-induction and measured after 24 hrs by Western blot analysis; type: functional, cell-based; settings: time 48.0 hrs
RAW264.7 [8] = assay: Antiarthritic activity against LPS-induced mouse RAW264.7 cells assessed as downregulation of JAK2 expression at 1 uM preincubated with compound for 24 hrs followed by LPS-induction and measured after 24 hrs by immunofluorescence analysis; type: functional, cell-based; settings: time 48.0 hrs
Mus musculus [9] = assay: Antiarthritic activity against collagen-induced rheumatoid arthritis mouse model assessed as reduction in TNF-alpha level at 100 mg/kg administered for 15 days by ELISA analysis; type: functional, organism-based; settings: time 15.0 day
RAW264.7 [10] = assay: Antiarthritic activity against LPS-induced mouse RAW264.7 cells assessed as downregulation of STAT3 mRNA expression at 1 uM preincubated with compound for 24 hrs followed by LPS-induction and measured after 24 hrs by RT-PCR analysis; type: functional, cell-based; settings: time 48.0 hrs
RAW264.7 [11] = assay: Antiarthritic activity against LPS-induced mouse RAW264.7 cells assessed as downregulation of TNF-alpha expression at 1 uM preincubated with compound for 24 hrs followed by LPS-induction and measured after 24 hrs by Western blot analysis; type: functional, cell-based; settings: time 48.0 hrs
Mus musculus [12] = assay: Antiarthritic activity against collagen-induced rheumatoid arthritis mouse model assessed as reduction in IL-1beta level at 100 mg/kg administered for 15 days by ELISA analysis; type: functional, organism-based; settings: time 15.0 day
Mus musculus [13] = assay: Antiarthritic activity against collagen-induced rheumatoid arthritis mouse model assessed as reduction in clinical score at 100 mg/kg administered for 15 days; type: functional, organism-based; settings: time 15.0 day
RAW264.7 [14] = assay: Antiarthritic activity against LPS-induced mouse RAW264.7 cells assessed as downregulation of TLR4 expression at 1 uM preincubated with compound for 24 hrs followed by LPS-induction and measured after 24 hrs by Western blot analysis; type: functional, cell-based; settings: time 48.0 hrs
RAW264.7 [15] = assay: Antiarthritic activity against LPS-induced mouse RAW264.7 cells assessed as downregulation of TNF-alpha expression at 1 uM preincubated with compound for 24 hrs followed by LPS-induction and measured after 24 hrs by immunofluorescence analysis; type: functional, cell-based; settings: time 48.0 hrs
RAW264.7 [16] = assay: Antiarthritic activity against LPS-induced mouse RAW264.7 cells assessed as downregulation of JAK2 mRNA expression at 1 uM preincubated with compound for 24 hrs followed by LPS-induction and measured after 24 hrs by RT-PCR analysis; type: functional, cell-based; settings: time 48.0 hrs
RAW264.7 [17] = assay: Antiarthritic activity against LPS-induced mouse RAW264.7 cells assessed as reduction in IL-1beta level at 1 uM pretreated with compound for 24 hrs followed by LPS induction and measured after 24 hrs; type: functional, cell-based; settings: time 48.0 hrs
RAW264.7 [18] = assay: Antiarthritic activity against LPS-induced mouse RAW264.7 cells assessed as downregulation of TLR4 mRNA expression at 1 uM preincubated with compound for 24 hrs followed by LPS-induction and measured after 24 hrs by RT-PCR analysis; type: functional, cell-based; settings: time 48.0 hrs
RAW264.7 [19] = assay: Antiarthritic activity against LPS-induced mouse RAW264.7 cells assessed as reduction in IL-6 level at 1 uM pretreated with compound for 24 hrs followed by LPS induction and measured after 24 hrs; type: functional, cell-based; settings: time 48.0 hrs
RAW264.7 [20] = assay: Antiproliferative activity against LPS-induced- mouse RAW264.7 cells assessed as decrease in number of cells at 1 uM pretreated with compound for 24 hrs followed by LPS induction and measured after 24 hrs; type: functional, cell-based; settings: time 48.0 hrs
RAW264.7 [21] = assay: Antiarthritic activity against LPS-induced mouse RAW264.7 cells assessed as downregulation of TNF-alpha mRNA expression at 1 uM preincubated with compound for 24 hrs followed by LPS-induction and measured after 24 hrs by RT-PCR analysis; type: functional, cell-based; settings: time 48.0 hrs
Mus musculus [22] = assay: Antiarthritic activity against collagen-induced rheumatoid arthritis mouse model assessed as reduction in paw swelling at 100 mg/kg administered for 15 days and measured on day 28; type: functional, organism-based; settings: time 28.0 day
RAW264.7 [23] = assay: Antiarthritic activity against LPS-induced mouse RAW264.7 cells assessed as downregulation of STAT3 expression at 1 uM preincubated with compound for 24 hrs followed by LPS-induction and measured after 24 hrs by immunofluorescence analysis; type: functional, cell-based; settings: time 48.0 hrs
RAW264.7 [24] = assay: Antiarthritic activity against LPS-induced mouse RAW264.7 cells assessed as downregulation of NF-kappaB expression at 1 uM preincubated with compound for 24 hrs followed by LPS-induction and measured after 24 hrs by immunofluorescence analysis; type: functional, cell-based; settings: time 48.0 hrs
Toll-like receptor 4 [25] = biological target: T1, Toll-like receptor 4; assay: Potency index, ratio of methotrexate IC50 to test compound IC50 for inhibition of TLR4 (unknown origin) using TMB as substrate incubated for 90 mins
RAW264.7 [26] = assay: Antiarthritic activity against LPS-induced mouse RAW264.7 cells assessed as reduction in TNF-alpha level at 1 uM pretreated with compound for 24 hrs followed by LPS induction and measured after 24 hrs; type: functional, cell-based; settings: time 48.0 hrs
RAW264.7 [27] = assay: Antiarthritic activity against LPS-induced mouse RAW264.7 cells assessed as downregulation of NF-kappaB mRNA expression at 1 uM preincubated with compound for 24 hrs followed by LPS-induction and measured after 24 hrs by RT-PCR analysis; type: functional, cell-based; settings: time 48.0 hrs
RAW264.7 [28] = assay: Antiarthritic activity against LPS-induced mouse RAW264.7 cells assessed as downregulation of JAK2 expression at 1 uM preincubated with compound for 24 hrs followed by LPS-induction and measured after 24 hrs by Western blot analysis; type: functional, cell-based; settings: time 48.0 hrs
Mus musculus [29] = assay: Antiarthritic activity against collagen-induced rheumatoid arthritis mouse model assessed as reduction in IL-6 level at 100 mg/kg administered for 15 days by ELISA analysis; type: functional, organism-based; settings: time 15.0 day
RAW264.7 [30] = assay: Antiarthritic activity against LPS-induced mouse RAW264.7 cells assessed as downregulation of TLR4 expression at 1 uM preincubated with compound for 24 hrs followed by LPS-induction and measured after 24 hrs by immunofluorescence analysis; type: functional, cell-based; settings: time 48.0 hrs
RAW264.7 [31] = assay: Antiarthritic activity against LPS-induced mouse RAW264.7 cells assessed as downregulation of NF-kappaB expression at 1 uM preincubated with compound for 24 hrs followed by LPS-induction and measured after 24 hrs by Western blot analysis; type: functional, cell-based; settings: time 48.0 hrs
RAW264.7 [32] = assay: Antiproliferative activity against LPS-induced- mouse RAW264.7 cells assessed as cell survival at 1 uM pretreated with compound for 24 hrs followed by LPS induction and measured after 24 hrs; type: functional, cell-based; settings: time 48.0 hrs

T1 sequence (O00206 whole entry): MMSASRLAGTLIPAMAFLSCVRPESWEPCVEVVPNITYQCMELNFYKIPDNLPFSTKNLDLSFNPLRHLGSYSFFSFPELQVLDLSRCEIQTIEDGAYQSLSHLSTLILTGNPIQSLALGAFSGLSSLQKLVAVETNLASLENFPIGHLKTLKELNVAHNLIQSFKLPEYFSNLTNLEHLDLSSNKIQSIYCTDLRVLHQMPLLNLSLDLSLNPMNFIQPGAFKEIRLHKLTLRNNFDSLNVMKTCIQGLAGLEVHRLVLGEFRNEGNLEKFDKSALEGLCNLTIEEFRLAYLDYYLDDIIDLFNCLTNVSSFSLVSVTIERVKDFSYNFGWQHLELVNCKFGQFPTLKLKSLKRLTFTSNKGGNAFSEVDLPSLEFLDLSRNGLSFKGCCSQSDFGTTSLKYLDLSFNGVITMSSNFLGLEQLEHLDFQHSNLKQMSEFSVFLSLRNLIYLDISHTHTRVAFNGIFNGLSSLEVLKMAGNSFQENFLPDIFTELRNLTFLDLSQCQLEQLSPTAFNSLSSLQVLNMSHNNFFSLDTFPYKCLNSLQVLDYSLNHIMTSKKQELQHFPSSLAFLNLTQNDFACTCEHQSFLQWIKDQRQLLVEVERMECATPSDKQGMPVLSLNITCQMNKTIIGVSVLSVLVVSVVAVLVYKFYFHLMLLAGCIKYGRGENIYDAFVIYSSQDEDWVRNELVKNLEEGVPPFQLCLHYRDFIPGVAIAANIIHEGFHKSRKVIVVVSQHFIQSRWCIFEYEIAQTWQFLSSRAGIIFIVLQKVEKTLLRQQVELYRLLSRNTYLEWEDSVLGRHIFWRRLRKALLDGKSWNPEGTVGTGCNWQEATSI

## CC(=O)CC(=O)C1CC(NC(=O)OCc2ccccc2)CCC1=O (stereo not given)
[1]
  IC50: 4.25 µM
RAW264.7 [2]
  IC50: 2.35 µM

## CC(=O)CC(=O)C1CC(c2ccccc2)CCC1=O (stereo not given)
[1]
  IC50: 3.95 µM
RAW264.7 [2]
  IC50: 2.18 µM

## CC(=O)CC(=O)C1CC(Cl)CCC1=O (stereo not given)
RAW264.7 [3]
  Activity: 350.2 pg/L
RAW264.7 [4]
  Activity: 385.1 pg/L
[1]
  IC50: 2.45 µM
Toll-like receptor 4 [5]
  IC50: 1.12 µM
RAW264.7 [2]
  IC50: 1.32 µM
RAW264.7 [6]
  Activity: 133.5 pg/L

## CC(=O)CC(=O)C1CC(C)CCC1=O (stereo not given)
RAW264.7 [3]
  Activity: 399.1 pg/L
RAW264.7 [4]
  Activity: 457.8 pg/L
[1]
  IC50: 3.32 µM
Toll-like receptor 4 [5]
  IC50: 1.15 µM
RAW264.7 [2]
  IC50: 1.69 µM
RAW264.7 [6]
  Activity: 176.6 pg/L

## CC(=O)CC(=O)C1CC(O)CCC1=O (stereo not given)
RAW264.7 [7]
  Activity: Active
RAW264.7 [3]
  Activity: 151.5 pg/L
RAW264.7 [8]
  Activity: Active
Mus musculus [9]
  Activity: Active
RAW264.7 [10]
  Activity: Active
RAW264.7 [11]
  Activity: Active
Mus musculus [12]
  Activity: Active
RAW264.7 [4]
  Activity: 258.3 pg/L
Mus musculus [13]
  Activity: Active
RAW264.7 [14]
  Activity: Active
RAW264.7 [15]
  Activity: Active
RAW264.7 [16]
  Activity: Active
RAW264.7 [17]
  Activity: Active
RAW264.7 [18]
  Activity: Active
RAW264.7 [19]
  Activity: Active
RAW264.7 [20]
  Activity: Active
RAW264.7 [21]
  Activity: Active
Mus musculus [22]
  Activity: Active
RAW264.7 [23]
  Activity: Active
RAW264.7 [24]
  Activity: Active
[1]
  IC50: 1.21 µM
Toll-like receptor 4 [25]
  Ratio IC50: 2.4
Toll-like receptor 4 [5]
  IC50: 0.43 µM
RAW264.7 [26]
  Activity: Active
RAW264.7 [27]
  Activity: Active
RAW264.7 [28]
  Activity: Active
Mus musculus [29]
  Activity: Active
RAW264.7 [2]
  IC50: 0.73 µM
RAW264.7 [30]
  Activity: Active
RAW264.7 [31]
  Activity: Active
RAW264.7 [6]
  Activity: 90.2 pg/L
RAW264.7 [32]
  Activity: Active

## CCOC(=O)C1CCC(=O)C(C(=O)CC(C)=O)C1 (stereo not given)
[1]
  IC50: 5.44 µM
RAW264.7 [2]
  IC50: 2.63 µM

## CCC1CCC(=O)C(C(=O)CC(C)=O)C1 (stereo not given)
[1]
  IC50: 5.31 µM
RAW264.7 [2]
  IC50: 2.68 µM

## CCCC1CCC(C2CCC(=O)C(C(=O)CC(C)=O)C2)CC1 (stereo not given)
RAW264.7 [3]
  Activity: 478.96 pg/L
RAW264.7 [4]
  Activity: 545.9 pg/L
[1]
  IC50: 3.51 µM
Toll-like receptor 4 [5]
  IC50: 1.78 µM
RAW264.7 [2]
  IC50: 1.71 µM
RAW264.7 [6]
  Activity: 180.7 pg/L

## CC(=O)CC(=O)C1CC(NC(C)=O)CCC1=O (stereo not given)
RAW264.7 [3]
  Activity: 365.2 pg/L
RAW264.7 [4]
  Activity: 407.2 pg/L
[1]
  IC50: 2.61 µM
Toll-like receptor 4 [5]
  IC50: 1.21 µM
RAW264.7 [2]
  IC50: 1.33 µM
RAW264.7 [6]
  Activity: 158.9 pg/L

## CC(=O)CC(=O)C1CC(N2C(=O)c3ccccc3C2=O)CCC1=O (stereo not given)
[1]
  IC50: 5.96 µM
RAW264.7 [2]
  IC50: 2.66 µM

## CC(=O)CC(=O)C1CC(C2=CCCCC2)CCC1=O (stereo not given)
[1]
  IC50: 5.43 µM
RAW264.7 [2]
  IC50: 2.83 µM

## CC(=O)CC(=O)C1CC(C2CCC3(CC2)OCCO3)CCC1=O (stereo not given)
[1]
  IC50: 5.22 µM
RAW264.7 [2]
  IC50: 2.51 µM
